We go through eleven compounds from US20230265116A1, “DEGRADATION OF (EGFR) BY CONJUGATION OF EGFR INHIBITORS WITH E3 LIGASE LIGAND AND METHODS OF USE” (BEIGENE, LTD., priority 2020, published 2023).

Usually DC50 stands for the concentration at which degradation of the target reaches its halfway point. A word on the Dmax: it is the largest share of the target that was removed.

Format in all cases: cell-based
In assay [1] the test system is EGFR Del19/T790M/C797S (H1975-clone #28). Nature of the assay: EGFR degradation HTRF assay, H1975-clone #28 DTC cells. Particulars: H1975 # 28 DTC cells; for DC50: EGFR degradation, IC50 (DC50) from curve fit, read-out: DC50(nM) H1975 # 28 DTC; for Dmax (%) H1975 # 28 DTC: maximum percentage of inhibition (degradation). In outline:
(§1)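 Cells were dosed on day 2 with an 8-point, 5-fold dilution series starting at 10 uM final and incubated 16h at 37° C. After lysis for 1 hour, HTRF antibodies were added overnight at room temperature and the plate was read at 665/620 nm. Degradation was normalised to DMSO wells and fitted for DC50 and Dmax.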

The subject of assay [2] is EGFR Del19/C797S (H1975-clone #23). Kind of assay: EGFR degradation HTRF assay, H1975-clone #23 DC cells. Particulars: 16h treatment; for H1975 #23 DC Dmax (%): maximum percentage of degradation; for DC50: H1975 #23 DC, read-out: H1975 #23 DC DC50. In outline: as §1
A general note: In TR-FRET formats the signal depends on donor and acceptor labels being close together.

Assay [3] has as its target T1, EGFR L858R/C797S (BaF3 LC cells) (Homo sapiens, UniProt P00533, C797S/L858R).
T1 construct: expressed in transfected cells; host or cells: BaF3
Kind of assay: EGFR degradation HTRF assay, BaF3 LC cells. The following applies: BaF3 LC, 16h treatment; for DC50: read-out: BaF3 LC DC50; for Dmax: maximum percentage of degradation, read-out: BaF3 LC Dmax (%).

Assay [4] has as its target T2, EGFR L858R/T790M/C797S (BaF3-LTC cells) (Homo sapiens, UniProt P00533, C797S/L858R/T790M).
T2 construct: expressed in transfected cells; host or cells: BaF3
Kind of assay: EGFR degradation HTRF assay, BaF3-LTC cells. Particulars: BaF3-LTC cells; for DC50: EGFR degradation, IC50 (DC50) from curve fit, read-out: DC50(nM) BaF3-LTC; for Dmax: maximum percentage of inhibition (degradation), read-out: Dmax (%) BaF3-LTC. A digest of the protocol:
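EGFR remaining after a 16 h, 37 °C exposure (8 doses, 5-fold steps from 10 uM final, 0.2% DMSO) was quantified by HTRF antibodies in cell lysate. Percent inhibition relative to DMSO control was fitted by four-parameter logistic to give DC50; Dmax denotes maximal degradation.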

T1 sequence (P00533 25-1210 C797S/L858R): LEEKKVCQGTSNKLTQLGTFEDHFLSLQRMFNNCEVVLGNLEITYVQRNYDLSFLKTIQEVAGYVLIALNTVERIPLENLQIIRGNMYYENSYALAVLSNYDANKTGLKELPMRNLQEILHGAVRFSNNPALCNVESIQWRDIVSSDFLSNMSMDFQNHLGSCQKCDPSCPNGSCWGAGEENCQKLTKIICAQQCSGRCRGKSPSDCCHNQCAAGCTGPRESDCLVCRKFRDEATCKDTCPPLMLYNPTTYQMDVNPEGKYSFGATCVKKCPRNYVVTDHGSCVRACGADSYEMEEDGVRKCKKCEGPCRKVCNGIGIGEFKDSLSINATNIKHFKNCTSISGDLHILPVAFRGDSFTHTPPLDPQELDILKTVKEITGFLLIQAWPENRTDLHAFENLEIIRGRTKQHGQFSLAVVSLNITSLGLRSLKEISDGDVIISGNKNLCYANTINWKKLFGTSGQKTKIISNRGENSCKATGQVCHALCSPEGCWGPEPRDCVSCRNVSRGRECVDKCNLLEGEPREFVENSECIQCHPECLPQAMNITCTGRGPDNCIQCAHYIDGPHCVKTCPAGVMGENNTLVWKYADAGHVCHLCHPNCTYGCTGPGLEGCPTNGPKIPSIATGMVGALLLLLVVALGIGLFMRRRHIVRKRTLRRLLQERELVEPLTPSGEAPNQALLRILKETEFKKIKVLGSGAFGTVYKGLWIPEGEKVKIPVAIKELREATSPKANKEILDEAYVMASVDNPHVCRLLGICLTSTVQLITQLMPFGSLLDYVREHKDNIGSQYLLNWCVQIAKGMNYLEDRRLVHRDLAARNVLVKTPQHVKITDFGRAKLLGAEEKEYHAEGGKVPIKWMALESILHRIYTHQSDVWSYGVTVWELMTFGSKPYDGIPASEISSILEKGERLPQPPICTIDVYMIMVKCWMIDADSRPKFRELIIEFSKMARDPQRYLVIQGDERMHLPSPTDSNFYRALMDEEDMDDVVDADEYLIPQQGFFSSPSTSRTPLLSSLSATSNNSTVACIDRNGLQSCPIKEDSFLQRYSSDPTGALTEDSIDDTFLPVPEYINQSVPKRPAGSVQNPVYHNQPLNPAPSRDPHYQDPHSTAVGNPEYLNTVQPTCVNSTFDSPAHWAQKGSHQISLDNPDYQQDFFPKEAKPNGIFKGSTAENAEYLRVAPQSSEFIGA
T2 sequence (P00533 25-1210 T790M/C797S/L858R): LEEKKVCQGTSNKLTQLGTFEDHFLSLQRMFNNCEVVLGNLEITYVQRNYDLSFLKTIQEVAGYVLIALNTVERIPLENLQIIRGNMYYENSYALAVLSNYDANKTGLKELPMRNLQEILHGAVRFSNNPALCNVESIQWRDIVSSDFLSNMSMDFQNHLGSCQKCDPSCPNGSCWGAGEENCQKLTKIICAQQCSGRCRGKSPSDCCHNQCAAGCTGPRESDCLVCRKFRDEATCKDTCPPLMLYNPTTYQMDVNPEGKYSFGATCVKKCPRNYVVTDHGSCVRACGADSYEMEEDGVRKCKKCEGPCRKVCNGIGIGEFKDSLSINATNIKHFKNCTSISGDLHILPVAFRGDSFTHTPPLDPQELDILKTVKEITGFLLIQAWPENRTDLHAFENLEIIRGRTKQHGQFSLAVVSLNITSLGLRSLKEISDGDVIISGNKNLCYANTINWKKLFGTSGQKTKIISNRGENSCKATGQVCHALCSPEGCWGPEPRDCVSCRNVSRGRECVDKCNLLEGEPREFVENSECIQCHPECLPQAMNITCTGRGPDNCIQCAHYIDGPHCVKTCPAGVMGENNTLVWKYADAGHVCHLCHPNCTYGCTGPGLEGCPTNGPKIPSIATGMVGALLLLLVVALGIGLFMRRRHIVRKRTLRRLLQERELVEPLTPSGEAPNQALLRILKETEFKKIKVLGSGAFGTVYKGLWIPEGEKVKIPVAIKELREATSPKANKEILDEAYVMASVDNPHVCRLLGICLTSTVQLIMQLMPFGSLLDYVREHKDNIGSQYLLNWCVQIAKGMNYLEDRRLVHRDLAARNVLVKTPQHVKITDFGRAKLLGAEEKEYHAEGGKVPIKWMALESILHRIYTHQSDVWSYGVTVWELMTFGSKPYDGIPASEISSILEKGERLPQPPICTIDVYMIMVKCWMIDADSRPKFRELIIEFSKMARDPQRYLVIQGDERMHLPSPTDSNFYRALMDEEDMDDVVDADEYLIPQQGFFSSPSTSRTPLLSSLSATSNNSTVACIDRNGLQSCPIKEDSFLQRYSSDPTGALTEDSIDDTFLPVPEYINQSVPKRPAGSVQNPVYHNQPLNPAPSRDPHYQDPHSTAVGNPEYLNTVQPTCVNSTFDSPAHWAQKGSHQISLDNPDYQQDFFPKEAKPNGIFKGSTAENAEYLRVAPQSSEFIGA

With `CCOc1cc(N2CCC(N3CCN(CCc4cc(F)c([C@H]5CCC(=O)NC5=O)c(F)c4)CC3)CC2)c(CC)cc1Nc1ncc(Br)c(Nc2ccc3nc(CC)ccc3c2P(C)(C)=O)n1` [Example 483, (R)-3-(4-(2-(4-(1-(4-((5-bromo-4-((5-(dimethylphosphoryl)-2-ethylquinolin-6-yl)amino)pyrimidin-2-yl)amino)-5-ethoxy-2-ethylphenyl)piperidin-4-yl)piperazin-1-yl)ethyl)-2,6-difluorophenyl)piperidine-2,6-dione], the DC50 in assay [1] was 2.02 nM; in assay [2] it was 7.19 nM; in assay [3] it was 69 nM; in assay [4], 26.6 nM. The “Dmax (%) H1975 # 28 DTC” value in assay [1] is reported as 81.31%. Further, the “H1975 #23 DC Dmax (%)” value in assay [2] came to 70.71%.
In the case of `CCc1ccc2c(P(C)(C)=O)c(Nc3nc(Nc4cc(CC)c(N5CCC(N6CCN(CCc7cc(F)c(C8CCC(=O)NC8=O)c(F)c7)CC6)CC5)cc4OC)ncc3Br)ccc2n1` (centres unmarked) [Example 485, 3-(4-(2-(4-(1-(4-((5-bromo-4-((5-(dimethylphosphoryl)-2-ethylquinolin-6-yl)amino)pyrimidin-2-yl)amino)-2-ethyl-5-methoxyphenyl)piperidin-4-yl)piperazin-1-yl)ethyl)-2,6-difluorophenyl)piperidine-2,6-dione], the DC50 in assay [1] was 2.78 nM; in assay [2] it was 10.4 nM; in assay [3], 35.1 nM; in assay [4], 26.9 nM. The “Dmax (%) H1975 # 28 DTC” value in assay [1] was 70.65%. Besides, the “H1975 #23 DC Dmax (%)” value in assay [2] was 82.7%.
In the case of `CCOc1cc(N2CCC(N3CCN(CCc4cc(F)c([C@H]5CCC(=O)NC5=O)c(F)c4)CC3)CC2)c(CC)cc1Nc1ncc(Br)c(Nc2cc(F)c3nc(CC)ccc3c2P(C)(C)=O)n1` [Example 486, (R)-3-(4-(2-(4-(1-(4-((5-bromo-4-((5-(dimethylphosphoryl)-2-ethyl-8-fluoroquinolin-6-yl)amino)pyrimidin-2-yl)amino)-5-ethoxy-2-ethylphenyl)piperidin-4-yl)piperazin-1-yl)ethyl)-2,6-difluorophenyl)piperidine-2,6-dione], the 50% degradation concentration (DC50) in assay [1] came to 0.802 nM; in assay [2] it was 4.73 nM; in assay [3], 16.6 nM; in assay [4], 5.83 nM. Besides, the “Dmax (%) H1975 # 28 DTC” value in assay [1] stood at 85.73%. For the same compound, the “H1975 #23 DC Dmax (%)” value in assay [2] was 80.02%.
For the compound `CCc1cc(Nc2ncc(Br)c(Nc3ccc4nc(C)ccc4c3P(C)(C)=O)n2)c(OC)cc1N1CCC(N2CCN(C(=O)[C@H]3CN(c4cc(F)c([C@H]5CCC(=O)NC5=O)c(F)c4)CC3(C)C)CC2)CC1` [Example 487, (R)-3-(4-((R)-4-(4-(1-(4-((5-bromo-4-((5-(dimethylphosphoryl)-2-methylquinolin-6-yl)amino)pyrimidin-2-yl)amino)-2-ethyl-5-methoxyphenyl)piperidin-4-yl)piperazine-1-carbonyl)-3,3-dimethylpyrrolidin-1-yl)-2,6-difluorophenyl)piperidine-2,6-dione], the DC50 in assay [1] is 2.22 nM; in assay [2], 4.02 nM; in assay [3] it was 10.1 nM; in assay [4], 5.25 nM. The “Dmax (%) H1975 # 28 DTC” value in assay [1] is recorded as 85.45%. Also, in assay [2], the “H1975 #23 DC Dmax (%)” value is on record as 74.41%.
Consider `CCc1cc(Nc2ncc(Br)c(Nc3ccc4nc(C)c(F)cc4c3P(C)(C)=O)n2)c(OC)cc1N1CCC(N2CCN(C(=O)[C@@H]3CCN(c4cc(F)c([C@H]5CCC(=O)NC5=O)c(F)c4)C3)CC2)CC1` [Example 488, (R)-3-(4-((R)-3-(4-(1-(4-((5-bromo-4-((5-(dimethylphosphoryl)-3-fluoro-2-methylquinolin-6-yl)amino)pyrimidin-2-yl)amino)-2-ethyl-5-methoxyphenyl)piperidin-4-yl)piperazine-1-carbonyl)pyrrolidin-1-yl)-2,6-difluorophenyl)piperidine-2,6-dione], for which the half-maximal degradation concentration (DC50) in assay [1] amounted to 0.97 nM; in assay [2], 2.23 nM; in assay [3] it was 17.9 nM; in assay [4], 3.52 nM. Further, the “Dmax (%) H1975 # 28 DTC” value in assay [1] is on record as 84.91%. In assay [2], the “H1975 #23 DC Dmax (%)” value worked out at 67.73%.
As to `CCc1cc(Nc2ncc(Br)c(Nc3ccc4nc(C)ccc4c3P(C)(C)=O)n2)c(OC)cc1N1CCC(N2CCN(CCc3ccc4c(c3)oc(=O)n4C3CCC(=O)NC3=O)CC2)CC1` (centres unmarked) [Example 490, 3-(6-(2-(4-(1-(4-((5-bromo-4-((5-(dimethylphosphoryl)-2-methylquinolin-6-yl)amino)pyrimidin-2-yl)amino)-2-ethyl-5-methoxyphenyl)piperidin-4-yl)piperazin-1-yl)ethyl)-2-oxobenzo[d]oxazol-3(2H)-yl)piperidine-2,6-dione], in assay [1], the DC50 worked out at 0.2 nM and the “Dmax (%) H1975 # 28 DTC” value turned out to be 80.5%. In assay [2], the “H1975 #23 DC Dmax (%)” value came out at 64.67% and the DC50 worked out at 0.974 nM. Further, in assay [3], the Dmax was found to be 95.7% and the DC50 amounted to 2.41 nM. Further, in assay [4], the DC50 came out at 1.3 nM and the Dmax turned out to be 92.8%.
As for `CCc1ccc2c(P(C)(C)=O)c(Nc3nc(Nc4cc(CC)c(N5CCC(N6CCN(CCc7ccc8c(c7)oc(=O)n8C7CCC(=O)NC7=O)CC6)CC5)cc4OC)ncc3Br)ccc2n1` (centres unmarked) [Example 491, 3-(6-(2-(4-(1-(4-((5-bromo-4-((5-(dimethylphosphoryl)-2-ethylquinolin-6-yl)amino)pyrimidin-2-yl)amino)-2-ethyl-5-methoxyphenyl)piperidin-4-yl)piperazin-1-yl)ethyl)-2-oxobenzo[d]oxazol-3(2H)-yl)piperidine-2,6-dione], the DC50 in assay [1] is 0.647 nM; in assay [2], 0.85 nM; in assay [3], 2.34 nM; in assay [4] it was 2.72 nM. Moreover, the “Dmax (%) H1975 # 28 DTC” value in assay [1] amounted to 78.48%. For the same compound, the “H1975 #23 DC Dmax (%)” value in assay [2] came out at 58.85%.
Turning to `CCOc1cc(N2CCC(N3CCN(CCc4cc5oc(=O)n(C6CCC(=O)NC6=O)c5cc4F)CC3)CC2)c(CC)cc1Nc1ncc(Br)c(Nc2ccc3nc(CC)ccc3c2P(C)(C)=O)n1` (centres unmarked) [Example 492, 3-(6-(2-(4-(1-(4-((5-bromo-4-((5-(dimethylphosphoryl)-2-ethylquinolin-6-yl)amino)pyrimidin-2-yl)amino)-5-ethoxy-2-ethylphenyl)piperidin-4-yl)piperazin-1-yl)ethyl)-5-fluoro-2-oxobenzo[d]oxazol-3(2H)-yl)piperidine-2,6-dione], in assay [1], the DC50 came to 0.605 nM and the “Dmax (%) H1975 # 28 DTC” value was 70.88%. Moreover, in assay [2], the “H1975 #23 DC Dmax (%)” value was 51.44% and the DC50 amounted to 3.07 nM. For the same compound, in assay [3], the Dmax was 79.5% and the DC50 came out at 4.28 nM. In assay [4], the DC50 is 3.39 nM and the Dmax is 95.5%.
With `CCOc1cc(N2CCC(N3CCN(CCc4cccc5c4oc(=O)n5C4CCC(=O)NC4=O)CC3)CC2)c(CC)cc1Nc1ncc(Br)c(Nc2cc(F)c3nc(CC)ccc3c2P(C)(C)=O)n1` (centres unmarked) [Example 493, 3-(7-(2-(4-(1-(4-((5-bromo-4-((5-(dimethylphosphoryl)-2-ethyl-8-fluoroquinolin-6-yl)amino)pyrimidin-2-yl)amino)-5-ethoxy-2-ethylphenyl)piperidin-4-yl)piperazin-1-yl)ethyl)-2-oxobenzo[d]oxazol-3 (2H)-yl)piperidine-2,6-dione], the DC50 was 0.588 nM in assay [1], 11.2 nM in assay [2], 24.3 nM in assay [3] and 2.71 nM in assay [4]. Also, the “Dmax (%) H1975 # 28 DTC” value in assay [1] is given as 70.43%. Besides, the “H1975 #23 DC Dmax (%)” value in assay [2] worked out at 63.11%.
`CCOc1cc(N2CCC(N3CCN(CCCc4cc(F)cc5c4oc(=O)n5C4CCC(=O)NC4=O)CC3)CC2)c(CC)cc1Nc1ncc(Br)c(Nc2ccc3nc(CC)ccc3c2P(C)(C)=O)n1` (centres unmarked) [Example 496, 3-(7-(3-(4-(1-(4-((5-bromo-4-((5-(dimethylphosphoryl)-2-ethylquinolin-6-yl)amino)pyrimidin-2-yl)amino)-5-ethoxy-2-ethylphenyl)piperidin-4-yl)piperazin-1-yl)propyl)-5-fluoro-2-oxobenzo[d]oxazol-3(2H)-yl)piperidine-2,6-dione]: in assay [1], the DC50 is 0.92 nM and the “Dmax (%) H1975 # 28 DTC” value was determined as 75.32%. In assay [2], the “H1975 #23 DC Dmax (%)” value worked out at 95.59% and the DC50 is 0.787 nM. In assay [3], the Dmax was 91.3% and the DC50 was 2.23 nM. For the same compound, in assay [4], the DC50 was 2.3 nM and the Dmax worked out at 85.5%.
Take `CCOc1cc(N2CCC(N3CCN(CC4CN(c5cccc6c5oc(=O)n6C5CCC(=O)NC5=O)C4)CC3)CC2)c(CC)cc1Nc1ncc(Br)c(Nc2ccc3nc(CC)ccc3c2P(C)(C)=O)n1` (centres unmarked) [Example 497]: in assay [1], the DC50 turned out to be 1.01 nM and the “Dmax (%) H1975 # 28 DTC” value is 80.94%. In assay [2], the “H1975 #23 DC Dmax (%)” value is recorded as 74.87% and the DC50 stood at 3.32 nM. In assay [3], the Dmax turned out to be 93.3% and the DC50 worked out at 5.19 nM. In addition, in assay [4], the DC50 worked out at 6.27 nM and the Dmax is 86.6%.
